These results are taken from patent US20150306110A1, “COMPOSITIONS AND METHODS FOR TREATMENT OF INFLAMMATION AND HYPERKERATOTIC LESIONS” (Novelix Pharmaceuticals, Inc., priority 2008, published 2015).

A short description of this series: Solubility in ethanol, DMSO and ethanol-Tween 80. The class given is physicochemical. The settings on record: organic solvent or mixture. How it is done: After solution in ethanol or DMSO, or chemically similar solvents, NVX-207 or a related compound may be formulated with co-solvents such as Cremophor EL® and/or Tween® 80, in a similar manner described for taxanes. For example, the formulation approach for paclitaxel (TAXOL®; Bristol-Myers Squibb) was to use 50% Cremophor EL® and 50% ethanol. The pharmaceutical formulation of paclitaxel contains 30 mg paclitaxel dissolved in 5 ml of this (1:1, v/v) mixture. These and equivalent formulations allow for the application of NVX-207 in sufficiently high concentrations not only for topical, but also for intralesional and systemic (intravenous infusion) use. Solubility of NVX-207 in ethanol was determined to be at least 300 mg/ml and reached 250 mg/ml in DMSO. […] The solubility of NVX-207 in ethanol-Tween® 80 was evaluated. Two-hundred mg of NVX-207 was dissolved in 1 ml ethanol. […] Then an equal volume of Tween® 80 was added, to achieve a stock solution of 100 mg/ml of NVX-207. The stock solution was clear and yellow. Each stock solution was diluted first 1:1 (50 mg/ml NVX-207), then 1:5 (20 mg/ml NVX-207) and finally 1:10 (10 mg/ml NVX-207) with water. […] NVX-207 therefore has, apart from its higher activity, significant advantages over betulinic acid, that include higher activity, better solubility in pharmaceutically suitable solvents, and better handling.

SMILES strings stand for the structures. Converted amounts (≈) assume the structure as drawn.

Turning to `C=C(C)[C@@H]1CC[C@]2(C(=O)O)CC[C@]3(C)[C@H](CC[C@@H]4[C@@]5(C)CC[C@H](O)C(C)(C)[C@@H]5CC[C@]43C)[C@@H]12` [betulinic acid, reference compound], the solubility by setting is: (Solubility in DMSO) 10000 µg/mL (≈ 21.9 mM); (Solubility in ethanol) less than 1000 µg/mL.
